Data reported in patent US11987543B1, “8-(4-bromobenzylideneamino)naphthalene-1,3-disulfonic acid as an antioxidant compound” (KING FAISAL UNIVERSITY, priority 2023, dated 2024).

Assay: DPPH radical scavenging antioxidant test
Assay type: biochemical
Conditions: for A (absorbance read against a blank at 517 nm) / Inhibition (radical scavenging inhibition): 0.2 mL DPPH (0.75 mM), compound 3 μM in ethanol, 30 min incubation in the dark
Procedure: The antioxidant properties of the 8-(4-bromobenzylideneamino)naphthalene-1,3-disulfonic acid were studied by adding 0.2 mL DPPH (0.75 mM)) to compound 8-(4-bromobenzylideneamino)naphthalene-1,3-disulfonic acid (III) (3 μM) in ethanol. After 30 min of incubation in the dark, the absorbance was read against a blank at 517 nm. Ascorbic acid (vitamin C) was used as standard antioxidants (positive control). A blank sample was prepared by 0.2 ml of DPPH in 3 ml ethanol. A negative control sample was run using ethanol instead of the sample. The radical scavenging inhibition was calculated using the following equation: […]

Question: Which results are given for O=S(=O)(O)c1cc(S(=O)(=O)O)c2c(/N=C/c3ccc(Br)cc3)cccc2c1 [Product III, 8-(4-bromobenzylideneamino)naphthalene-1,3-disulfonic acid]?
Answer: A (absorbance read against a blank at 517 nm): 0.21; Inhibition (radical scavenging inhibition) (517 nm): 50%; antioxidant potential compared to vitamin C (in words) (DPPH in vitro test, vitamin C as positive control, 517 nm): high potential as an antioxidant compared to vitamin C

Question: For O=C1O[C@H]([C@@H](O)CO)C(O)=C1O [vit c, Ascorbic acid, reference compound], which “A (absorbance read against a blank at 517 nm)” value is on record?
Answer: 0.12

Question: What about the “Inhibition (radical scavenging inhibition)” value (517 nm) of the same compound?
Answer: 74%
